Reference: US7521232B2, “Emissive species for clinical imaging” (ICx Nomadics, Inc., priority 2006, dated 2009)

Experiment: Solubility of isolated product in solvents
Type: physicochemical

Solubility in hexanes (hexanes)	Solubility in water (water)	Solubility in DMF (DMF)	Solubility in acetone (acetone)	Structure (SMILES)
Not very soluble	Not very soluble			OCCOCCOc1cc(I)c(OCCOCCO)cc1I
		soluble	soluble	Cc1ccc(S(=O)(=O)OCCOCCOc2cc(I)c(OCCOCCOS(=O)(=O)c3ccc(C)cc3)cc2I)cc1
